Measurements reported in patent publication US4424226A, “Pyridobenzodiazepinones, pharmaceutical compositions thereof and method of use thereof” (Dr. Karl Thomae GmbH, priority 1982, dated 1984).
pIC50: −log10 of the molar value.

Key:
muscarinic receptors [1] = assay: Oxotremorine test: inhibition of oxotremorine-induced secretion of saliva; type: in vivo, rat (female albino, Crl:COBS-CD (SD) BR); settings: i.v., 15 min before oxotremorine 0.083 mg/kg i.v.; rats
Description: (§1) Oxotremorine, a specific agonist for muscarinic receptors produces lesions in the mucous membrane of the stomach in rats and increases their secretion of saliva. This test method was chosen so that any selective activity of an antimuscarinic substance on the stomach could be identified.
(§2) Ten female albino rats (of the Crl:COBS-CD (SD) BR strain) with a body weight of from 120 to 150 gm apiece were used in each treatment group and were kept without food for 24 hours before the start of the test but given free access to drinking water.
(§3) To determine, in preliminary tests, the muscarinic effect of oxotremorine on each of the symptoms studied, a dosage/activity curve was drawn up with at least three dosages for each symptom.
(§4) When the antimuscarinic substances were tested, the dosage of oxotremorine which triggered the symptom in question in 90 to 100% of the animals in the preliminary tests was used.
Secretion of saliva 0.083 mg/kg i.v.
Each antimuscarinic substance was administered intravenously in uniformly graduated doses 15 minutes before the oxotremorine was administered. Control groups were given corresponding quantities of the solvent and suspension agent instead of the test substance. […]
(§5) The ED50 values were determined using the method described by Litchfield and Wilcoxon (J. Pharmacol. Exp. Ther. 96, 99, 1949).

muscarinic receptors [2] = assay: Oxotremorine test: protection against oxotremorine-induced lesions in the mucous membrane of the stomach; type: in vivo, rat (female albino, Crl:COBS-CD (SD) BR); settings: i.v.; rats; oxotremorine 0.62 mg/kg i.v. after neostigmine 1 mg/kg oral; % animals without lesions
Description: as §1, §2, §3, §4
Each antimuscarinic substance was administered intravenously in uniformly graduated doses 15 minutes before the oxotremorine was administered. Control groups were given corresponding quantities of the solvent and suspension agent instead of the test substance. Immediately after the oxotremorine was administered, the animals were placed in a glass case for 15 minutes and observed.
as §5
The effects on lesions of the mucous membrane of the stomach were evaluated as follows:
The lesions of the gastric mucous membrane were produced by intravenous injection of 0.62 mg/kg of oxotremorine 30 minutes after the oral administration of 1 mg/kg of neostigmine (a cholinesterase inhibitor). […] The protective effect of the test substances was expressed as the percentage inhibition (percentage of animals without lesions). The ED50 and ED70 values were determined using the method of LITCHFIELD and WILCOXON (see above).

[3] = target: T1, muscarinic receptors (smooth muscle of the fundus of the stomach) (Rattus norvegicus); assay: Binding to muscarinic receptors, smooth muscle of the fundus of the stomach (inhibition of specific 3H-NMS binding); set-up: species or system rat (Sprague-Dawley); settings: 0.3 nM 3H-NMS, 45 min, 30° C., pH 7.4, read-out: Receptor Binding Tests IC50, Smooth Muscle Fundus of Stomach
T1 construct: The smooth muscle of the fundus of the stomach was separated from the mucous membrane of the stomach; from tissue; host or cells: smooth muscle of the stomach fundus of male Sprague-Dawley rats, homogenate
Description: (§6) 3. Studies of binding to muscarinic receptors: Determination of the IC50 value
(§7) The organ donors were male Sprague-Dawley rats with a body weight of from about 180 to 220 gm each. After the heart, stomach, and cerebral cortex had been removed, the remainder of the operation was carried out in ice-cold Hepes-HCl buffer (pH 7.4; 100 m molar NaCl, 10 m molar MgCl2). The smooth muscle of the fundus of the stomach was separated from the mucous membrane of the stomach and subjected to preliminary homogenization. The whole heart was cut up with scissors. All the organs were then homogenized in a Potter apparatus.
(§8) For the bonding test, the homogenized organs were diluted as follows:
Smooth muscle of the fundus
(§9) The homogenized organ preparations were incubated at a specific concentration of the radioligand and with a series of concentrations of the non-radioactive test substances in an Eppendorf centrifuge tube at 30° C. The duration of incubation was 45 minutes. The substance 0.3 n molar ^3 H-N-methylscopolamine (^3 H-NMS) was used as the radioligand. After incubation had been brought to an end by centrifuging at 14,000 g, the radioactivity in the pellet was determined. […] The proportion of non-specific bonding was defined as the radioactivity which was bonded in the presence of 1μ molar quinuclidinylbenzylate. […] The IC50 values of the non-labelled test substances were determined graphically. […]

[4] = Testing for mydriasis (effect on pupil size); settings: rat, in vivo, iv; rats; pupil observed 10 minutes
Description: The effect of the test substances on the pupil size in rats was investigated as follows:
The substances were administered intravenously to groups of 10 animals in at least three uniformly graduated doses. The pupil size was then observed for 10 minutes to see if there were any changes (mydriasis or miosis). […] The percentage of test animals in which mydriasis occurred was determined. The ED50 values were again determined during the method of LITCHFIELD and WILCOXON (see above).

[5] = target: muscarinic receptors (cerebral cortex); assay: Binding to muscarinic receptors, cerebral cortex (inhibition of specific 3H-NMS binding); set-up: species or system rat (Sprague-Dawley); settings: 0.3 nM 3H-NMS, 45 min, 30° C., pH 7.4, read-out: Receptor Binding Tests IC50, Cortex
Description: as §6, §7, §8, §9

[6] = target: T2, muscarinic receptors (heart) (Rattus norvegicus, UniProt P10980); assay: Binding to muscarinic receptors, whole heart (inhibition of specific 3H-NMS binding); set-up: species or system rat (Sprague-Dawley); settings: 0.3 nM 3H-NMS, 45 min, 30° C., pH 7.4, read-out: Receptor Binding Tests IC50, Heart
T2 construct: The whole heart was cut up with scissors; All the organs were then homogenized in a Potter apparatus; from tissue; host or cells: whole heart of male Sprague-Dawley rats, homogenate
T2 sequence (P10980 1-466): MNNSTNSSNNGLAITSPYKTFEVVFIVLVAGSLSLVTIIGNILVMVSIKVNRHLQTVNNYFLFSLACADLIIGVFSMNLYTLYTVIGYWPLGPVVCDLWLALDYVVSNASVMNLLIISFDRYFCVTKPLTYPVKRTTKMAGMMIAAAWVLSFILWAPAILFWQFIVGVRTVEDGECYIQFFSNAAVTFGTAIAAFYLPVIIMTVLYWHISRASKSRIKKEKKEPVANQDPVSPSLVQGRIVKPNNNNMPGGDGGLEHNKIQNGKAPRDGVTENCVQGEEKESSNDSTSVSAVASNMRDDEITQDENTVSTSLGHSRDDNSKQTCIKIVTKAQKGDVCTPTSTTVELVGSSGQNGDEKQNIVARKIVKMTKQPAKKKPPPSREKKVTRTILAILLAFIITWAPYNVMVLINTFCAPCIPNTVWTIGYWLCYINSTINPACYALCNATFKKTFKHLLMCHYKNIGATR
Description: as §6, §7, §8, §9

SMILES	Oxotremorine Test, Inhibition of Salivation ED50 (muscarinic receptors [1]) [µg/kg]	Oxotremorine Test, Anti-ulcerative Effect ED50 (muscarinic receptors [2]) [µg/kg]	Oxotremorine Test, Anti-ulcerative Effect ED70 (muscarinic receptors [2]) [µg/kg]	pIC50 [3]	ED50 at 10 min [4] [mg/kg]	pIC50 [5]	pIC50 [6]
CN1CC=C(CC(=O)N2c3ccccc3C(=O)Nc3cccnc32)CC1 [A, 5,11-dihydro-11-[(1-methyl-1,2,5,6-tetrahydro-4-pyridinyl)acetyl]-6H-pyrido[2,3-b][1,4]benzodiazepin-6-one]	28	1.1	2	6.70	0.074	7.30	6.77
CN1[C@@H]2CC[C@H]1C[C@@H](CC(=O)N1c3ccccc3C(=O)Nc3cccnc31)C2 [B, endo-5,11-dihydro-11-[(8-methyl-8-azabicyclo[3.2.1]oct-3-yl)acetyl]-6H-pyrido[2,3-b][1,4]benzodiazepin-6-one]	300		37	6.15	0.22	7.30	6.82
